Measurements from patent US10087242B2 (INSTITUT PASTEUR, priority 2007, dated 2018).

Tests used:
Assay type in all cases: binding, mouse
[1] = tested on: mIgG C7-37; assay: inhibition ELISA: oligosaccharide inhibits fixation of mIgG C7-37 on LPS 3a; details: concentration of oligosaccharide giving 50% inhibition of fixation of the mAb on LPS 3a (S. flexneri 3a)
Procedure: (§1) The oligosaccharide determinants recognized by the four mAbs obtained were characterized by measuring, by inhibition ELISA, the interaction of the various oligosaccharides synthesized with these mAbs.
(§2) 1) First, a standard curve OD=f(concentration of the mAb) was established for each antibody.
(§3) For this, purified LPS from S. flexneri 3a was fixed in the wells of ELISA plates (96-well plate), at a concentration of 25 μg/ml in a carbonate buffer pH 9.6, at 4° C., overnight.
(§4) After washing the wells with a solution of PBS/ Tween 20 (0.05%) 1% and a stage of saturation with PBS/BSA 1% for 30 minutes at 4° C., various concentrations of each mAb were incubated for 30 minutes at 4° C. After a washing stage, a secondary antibody coupled to alkaline phosphatase and specific to the mouse IgGs or IgMs was added at a dilution of 1/5000 (Sigma-Aldrich) for 1 h at 37° C. After washing, the enzymatic reaction was carried out with the specific substrate of alkaline phosphatase (12 mg of p-nitrophenylphosphate in 1.2 ml of Tris-HCl buffer 1M (pH 8.8) and 10.8 ml of 5M NaCl). Once the color reaction had developed, the plates were read at 405 nm (Dynatech MR 4000 plate reader). The standard curve OD =f(Ab concentration) was refined with the equation Y=aX2+bX+c, where Y corresponds to the OD and X to the antibody concentration. A correlation factor (r2) of 0.99 was generally obtained.
(§5) 2) The concentration of oligosaccharide capable of inhibiting 50% of the fixation of the mAb on LPS 3a was then determined as follows.
(§6) Each mAb was used at a given concentration, defined as the first concentration tested giving a maximum OD on the standard curve (the first point at the start of the plateau of the curve). Various concentrations of each of the oligosaccharides to be tested were then incubated separately with the mAb at constant concentration, overnight at 4° C., in 1% PBS-BSA buffer. Measurement of the free antibody concentration was carried out as stated above, after incubation of the mAb/oligosaccharide mixtures at 4° C. for 30 minutes on plates covered with LPS 3a and using the standard curve obtained in parallel on the same plate. For each mAb and each oligosaccharide, a value called IC50 was then calculated, corresponding to the concentration of oligosaccharide permitting 50% inhibition of the fixation of the mAb on LPS 3a.

[2] = tested on: mIgG G7-12; assay: inhibition ELISA: oligosaccharide inhibits fixation of mIgG G7-12 on LPS 3a; details: concentration of oligosaccharide giving 50% inhibition of fixation of the mAb on LPS 3a (S. flexneri 3a)
Procedure: as §1, §2, §3, §4, §5, §6

[3] = tested on: IgM (G 19-2); assay: inhibition ELISA: oligosaccharide inhibits fixation of IgM G19-2 on LPS 3a; details: for IC50: concentration of oligosaccharide giving 50% inhibition of fixation of the mAb on LPS 3a (S. flexneri 3a), inhibition ELISA; for recognition by the mIgM antibody (and by the mIgGs): summary in words of tables 1 and 2, interaction weaker than with the mIgGs
Procedure: Protocol 2) Ten Balb/C mice and four BP2 mice were immunized by i.p. injection with virulent live bacteria of the strain S. flexneri 3a, every three weeks, using 2×10^6 bacteria for the first 2 immunizations and 5×10^6 for the next 4. As the anti-LPS 3a antibody response was too weak for performing cellular fusion, an additional series of 4 injections was carried out. Two mAbs of type IgM, G19-2 and L18-9, were obtained.
as §1, §2, §3, §4, §5, §6

CCCO[C@@H]1O[C@@H](C)[C@H](O)[C@@H](O[C@H]2O[C@H](CO)[C@@H](O)[C@H](O)[C@H]2O)[C@H]1O [EA-OPr, Propyl α-D-glucopyranosyl- (1→3)-α-L-rhamnopyranoside]
IC50 [1]: > 5 mM | IC50 [2]: > 2.5 mM | IC50 [3]: > 2.5 mM

CCCO[C@@H]1OC(C)[C@H](O)C(O)C1O[C@@H]1OC(C)[C@H](O)C(O[C@H]2OC(CO)[C@@H](O)C(O)C2O)C1O[C@@H]1OC(CO)[C@@H](O)C(O[C@@H]2OC(C)[C@H](O)C(O[C@@H]3OC(C)[C@H](O)C(O)C3O)C2O)C1NC(C)=O (stereo partly drawn) [BCDEAB-Opr]
IC50 [1]: > 5 mM | IC50 [2]: > 2.5 mM | IC50 [3]: > 2.5 mM

CCCO[C@@H]1O[C@@H](C)[C@H](O)[C@@H](O[C@@H]2O[C@@H](C)[C@H](O)[C@@H](O)[C@H]2O[C@@H]2O[C@@H](C)[C@H](O)[C@@H](O[C@H]3O[C@H](CO)[C@@H](O)[C@H](O)[C@H]3O)[C@H]2O)[C@H]1OC(C)=O [EABC(2-OAc)-OPr, Propyl α-D-glucopyranosyl-(1→3)-α-L-rhamnopyranosyl-(1→2)-α-L-rhamnopyranosyl-(1→3)-2-O-acetyl-α-L-rhamnopyranoside]
IC50 [1]: 0.41 mM | IC50 [2]: 0.45 mM | IC50 [3]: 1.43 mM | recognition by the mIgM antibody (and by the mIgGs) [3]: recognized

CCCO[C@@H]1O[C@@H](C)[C@H](O)[C@@H](O[C@@H]2O[C@@H](C)[C@H](O)[C@@H](O)[C@H]2O[C@@H]2O[C@@H](C)[C@H](O)[C@@H](O[C@H]3O[C@H](CO)[C@@H](O)[C@H](O)[C@H]3O)[C@H]2O)[C@H]1O [EABC-Opr, Propyl α-D-glucopyranosyl-(1→3)-α-L-rhamnopyranosyl-(1→2)-α-L-rhamnopyranosyl-(1→3)-α-L-rhamnopyranoside]
IC50 [1]: > 5 mM | IC50 [2]: > 2.5 mM | IC50 [3]: > 2.5 mM

CCCO[C@@H]1OC(CO)[C@@H](O)C(O[C@@H]2OC(C)[C@H](O)C(O[C@@H]3OC(C)[C@H](O)C(O)C3O[C@@H]3OC(C)[C@H](O)C(O[C@H]4OC(CO)[C@@H](O)C(O)C4O)C3O)C2OC(C)=O)C1NC(C)=O (stereo partly drawn) [EABC(2-OAc)D-OPr, Propyl α-D-glucopyranosyl-(1→3)-α-L-rhamnopyranosyl-(1→2)-α-L-rhamnopyranosyl-(1→3)-(2-O-acetyl-α-L-rhamnopyranosyl)-(1→3)-2-acetamido-2-deoxy-β-D-glucopyranoside]
IC50 [1]: 0.28 mM | IC50 [2]: 0.315 mM | IC50 [3]: 1.28 mM | recognition by the mIgM antibody (and by the mIgGs) [3]: recognized

CCCO[C@@H]1O[C@@H](C)[C@H](O)[C@@H](O[C@@H]2O[C@@H](C)[C@H](O)[C@@H](O)[C@H]2O[C@@H]2O[C@@H](C)[C@H](O)[C@@H](O[C@H]3O[C@H](CO)[C@@H](O)[C@H](O)[C@H]3O)[C@H]2O[C@@H]2O[C@H](CO)[C@@H](O)[C@H](O)[C@H]2NC(C)=O)[C@H]1OC(C)=O [DEABC(2-OAc)-OPr, Propyl (2-acetamido-2-deoxy-β-D-glucopyranosyl)-(1→2)-[α-D-glucopyranosyl-(1→3)]-α-L-rhamnopyranosyl-(1→2)-α-L-rhamnopyranosyl-(1→3)-2-O-acetyl-α-rhamnopyranoside]
IC50 [2]: > 2.5 mM | IC50 [3]: > 2.5 mM

CCCO[C@@H]1OC(C)[C@H](O)C(O[C@H]2OC(CO)[C@@H](O)C(O)C2O)C1O[C@@H]1OC(CO)[C@@H](O)C(O[C@@H]2OC(C)[C@H](O)C(O[C@@H]3OC(C)[C@H](O)C(O)C3O)C2O)C1NC(C)=O (stereo partly drawn) [BCDEA-Opr, Propyl α-L-rhamnopyranosyl-(1→3)-α-L-rhamnopyranosyl-(1→3)-(2-acetamido-2-deoxy-β-D-glucopyranosyl)-(1→2)-[α-D-glucopyranosyl-(1→3)]-α-L-rhamnopyranoside]
IC50 [1]: > 1 mM | IC50 [2]: > 2.5 mM | IC50 [3]: > 2.5 mM

CCCO[C@@H]1O[C@@H](C)[C@H](O)[C@@H](O)[C@H]1O[C@@H]1O[C@@H](C)[C@H](O)[C@@H](O[C@H]2O[C@H](CO)[C@@H](O)[C@H](O)[C@H]2O)[C@H]1O[C@@H]1O[C@H](CO)[C@@H](O)[C@H](O)[C@H]1NC(C)=O [DEAB-OPr, Propyl 2-acetamido-2-deoxy-β-D-glucopyranosyl-(1→2)-[α-D-glucopyranosyl-(1→3)]-α-L-rhamnopyranosyl-(1→2)-α-L-rhamnopyranoside]
IC50 [1]: > 5 mM | IC50 [2]: > 2.5 mM | IC50 [3]: > 2.5 mM

CCCO[C@@H]1O[C@H](CO)[C@@H](O)[C@H](O[C@@H]2O[C@@H](C)[C@H](O)[C@@H](O[C@@H]3O[C@@H](C)[C@H](O)[C@@H](O)[C@H]3O[C@@H]3O[C@@H](C)[C@H](O)[C@@H](O[C@H]4O[C@H](CO)[C@@H](O)[C@H](O)[C@H]4O)[C@H]3O)[C@H]2O)[C@H]1NC(C)=O [EABCD-OPr, Propyl α-D-glucopyranosyl-(1→3)-α-L-rhamnopyranosyl-(1→2)-α-L-rhamnopyranosyl-(1→3)-α-L-rhamnopyranosyl-(1→3)-2-acetamido-2-deoxy-β-D-glucopyranoside]
IC50 [1]: > 1 mM | IC50 [2]: > 2.5 mM | IC50 [3]: > 2.5 mM

CCCO[C@@H]1OC(C)[C@H](O)C(O)C1O[C@@H]1OC(C)[C@H](O)C(O[C@H]2OC(CO)[C@@H](O)C(O)C2O)C1O[C@@H]1OC(CO)[C@@H](O)C(O[C@@H]2OC(C)[C@H](O)C(O)C2OC(C)=O)C1NC(C)=O (stereo partly drawn) [C(2,3-OAc)D(E)AB-OPr, Propyl (2-O-acetyl-α-L-rhamnopyranosyl)-(1→3)-(2-acetamido-2-deoxy-β-D-glucopyranosyl)-(1→2)-[α-D-glucopyranosyl-(1→3)]-α-L-rhamnopyranosyl-(1→2)-α-L-rhamnoyranoside]
IC50 [1]: > 5 mM | IC50 [2]: > 2.5 mM | IC50 [3]: > 2.5 mM

CCCO[C@@H]1OC(C)[C@H](O)C(O[C@H]2OC(CO)[C@@H](O)C(O)C2O)C1O[C@@H]1OC(CO)[C@@H](O)C(O[C@@H]2OC(C)[C@H](O)C(O[C@@H]3OC(C)[C@H](O)C(O)C3O)C2OC(C)=O)C1NC(C)=O (stereo partly drawn) [BCDEA-Opr-Oac, Propyl α-L-rhamnopyranosyl-(1→3)-(2-O-acetyl-α-L-rhamnopyranosyl)-(1→3)-(2-acetamido-2-deoxy-β-D-glucopyranosyl)-(1→2)-[α-D-glucopyranosyl-(1→3)]-α-L-rhamnopyranoside]
IC50 [1]: 0.195 mM | IC50 [2]: 0.175 mM | IC50 [3]: 1.98 mM | recognition by the mIgM antibody (and by the mIgGs) [3]: recognized

CCCO[C@@H]1O[C@@H](C)[C@H](O)[C@@H](O)[C@H]1O[C@@H]1O[C@@H](C)[C@H](O)[C@@H](O[C@H]2O[C@H](CO)[C@@H](O)[C@H](O)[C@H]2O)[C@H]1O [EAB-OPr, Propyl α-D-glucopyranosyl-(1→3)-α-L-rhamnopyranosyl-(1→2)-α-L-rhamnopyranoside]
IC50 [1]: > 5 mM | IC50 [2]: > 2.5 mM | IC50 [3]: > 2.5 mM

CCCO[C@@H]1OC(C)[C@H](O)[C@H](O[C@H]2O[C@@H](CO)[C@@H](O)C(O)C2O)C1O[C@@H]1OC(CO)[C@@H](O)C(O)[C@@H]1NC(C)=O (stereo partly drawn)
IC50 [1]: > 5 mM | IC50 [2]: > 2.5 mM | IC50 [3]: > 2.5 mM

CCCO[C@@H]1OC(C)[C@H](O)C(O)C1O[C@@H]1OC(C)[C@H](O)C(O[C@H]2OC(CO)[C@@H](O)C(O)C2O)C1O[C@@H]1OC(CO)[C@@H](O)C(O[C@@H]2OC(C)[C@H](O)C(O[C@@H]3OC(C)[C@H](O)C(O)C3O)C2OC(C)=O)C1NC(C)=O (stereo partly drawn) [BC(2-OAc)D(E)AB-OPr, Propyl α-L-rhamnopyranosyl-(1→3)-(2-O-acetyl-α-L-rhamnopyranosyl)-(1→3)-(2-acetamido-2-deoxy-β-D-glucopyranosyl)-(1→2)-[α-D-glucopyranosyl-(1→3)]-α-L-rhamnopyranosyl-(1→2)-α-L-rhamnopyranoside]
IC50 [1]: 0.23 mM | IC50 [2]: 0.205 mM | IC50 [3]: 2.2 mM | recognition by the mIgM antibody (and by the mIgGs) [3]: recognized
